Reference: Sander's compilation of Henry's law constants (doi:10.1016/0045-6535(88)90028-8)

Experiment: Henry solubility constant Hcp at 298.15 K (mol/(m3 Pa))
Conditions: reference: Dunnivant and Elzerman (1988)

Compound | Henry solubility constant Hcp
Clc1ccc(-c2ccccc2)c(Cl)c1 [2,4-dichlorobiphenyl] | 0.028
Clc1ccc(-c2ccc(Cl)c(Cl)c2)cc1Cl [3,3',4,4'-tetrachlorobiphenyl] | 0.1
Clc1cccc(-c2cccc(Cl)c2Cl)c1Cl [2,2',3,3'-tetrachlorobiphenyl] | 0.049
Clc1cc(Cl)c(-c2cc(Cl)c(Cl)cc2Cl)cc1Cl [2,2',4,4',5,5'-hexachlorobiphenyl] | 0.075
Clc1cccc(-c2cc(Cl)ccc2Cl)c1 [2,3',5-trichlorobiphenyl] | 0.03
Clc1ccccc1-c1ccccc1Cl [2,2'-dichlorobiphenyl] | 0.029
Clc1cc(Cl)c(-c2ccccc2)c(Cl)c1 [2,4,6-trichlorobiphenyl] | 0.015
Clc1ccc(Cl)c(-c2ccccc2)c1 [2,5-dichlorobiphenyl] | 0.025
Clc1ccc(Cl)c(-c2ccccc2Cl)c1 [2,2',5-trichlorobiphenyl] | 0.026
Clc1ccc(Cl)c(-c2cc(Cl)c(Cl)cc2Cl)c1 [2,2',4,5,5'-pentachlorobiphenyl] | 0.039
Clc1ccc(Cl)c(-c2cc(Cl)ccc2Cl)c1 [2,2',5,5'-tetrachlorobiphenyl] | 0.029
Clc1ccc(-c2ccccc2)cc1Cl [3,4-dichlorobiphenyl] | 0.048
Clc1cccc(-c2cccc(Cl)c2)c1 [3,3'-dichlorobiphenyl] | 0.042
Clc1ccc(-c2ccc(Cl)cc2)cc1 [4,4'-dichlorobiphenyl] | 0.05
Clc1cc(Cl)c(-c2c(Cl)cc(Cl)cc2Cl)c(Cl)c1 [2,2',4,4',6,6'-hexachlorobiphenyl] | 0.013
Clc1cccc(Cl)c1-c1c(Cl)cccc1Cl [2,2',6,6'-tetrachlorobiphenyl] | 0.018
